Laboratory results: US4943566A, “Novel 17-aryl-steroids” (Roussel Uclafi, priority 1987, dated 1990)

Target: T1, progesterone receptors of rabbit uterus (Oryctolagus cuniculus, UniProt P06186)
T1 construct: The first test was on the progesterone receptors of rabbit uterus; from tissue; host or cells: uterus of estradiol-treated immature rabbits, 105,000 g supernatant (cytosol)
T1 sequence (P06186 1-930): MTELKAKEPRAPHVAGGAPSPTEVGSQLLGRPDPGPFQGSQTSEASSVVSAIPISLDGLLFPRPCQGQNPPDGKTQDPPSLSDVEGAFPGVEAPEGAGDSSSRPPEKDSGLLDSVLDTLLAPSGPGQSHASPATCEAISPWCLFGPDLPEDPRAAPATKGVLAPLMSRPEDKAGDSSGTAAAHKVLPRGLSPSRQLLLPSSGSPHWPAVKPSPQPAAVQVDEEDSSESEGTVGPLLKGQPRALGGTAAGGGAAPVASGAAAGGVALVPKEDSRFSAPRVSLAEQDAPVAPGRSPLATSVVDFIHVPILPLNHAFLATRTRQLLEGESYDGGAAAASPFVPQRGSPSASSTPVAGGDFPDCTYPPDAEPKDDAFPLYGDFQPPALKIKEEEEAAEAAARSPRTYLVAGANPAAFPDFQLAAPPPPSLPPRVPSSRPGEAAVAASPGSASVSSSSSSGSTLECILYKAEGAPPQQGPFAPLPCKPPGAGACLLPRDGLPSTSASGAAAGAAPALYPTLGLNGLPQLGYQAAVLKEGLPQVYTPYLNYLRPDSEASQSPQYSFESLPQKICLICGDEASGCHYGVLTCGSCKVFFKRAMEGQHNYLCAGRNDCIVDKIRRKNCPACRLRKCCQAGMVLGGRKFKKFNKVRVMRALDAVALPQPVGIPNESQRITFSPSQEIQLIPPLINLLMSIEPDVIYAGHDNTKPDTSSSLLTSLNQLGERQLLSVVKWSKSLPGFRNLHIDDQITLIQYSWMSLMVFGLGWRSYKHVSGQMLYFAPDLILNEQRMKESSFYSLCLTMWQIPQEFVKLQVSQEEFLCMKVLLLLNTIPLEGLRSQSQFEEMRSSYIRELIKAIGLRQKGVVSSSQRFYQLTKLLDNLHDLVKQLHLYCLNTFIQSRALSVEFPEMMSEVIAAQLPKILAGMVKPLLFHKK
Assay: Relative binding affinity (ARL), progesterone receptors of rabbit uterus
Settings: rabbit uterus cytosol, tritiated 17,21-dimethyl-19-nor-Δ4,9-pregnadiene-3,20-dione, cold reference hormone progesterone; for relative affinity of the bond (ARL), Progestogen, 2H: incubation 2H at 0° C.; for relative affinity of the bond (ARL), Progestogen, 24H: incubation 24H at 0° C.
Experimental: The first test was on the progesterone receptors of rabbit uterus in which immature rabbits weighing about 1 kg received a cutaneous application of […] of estradiol and 5 days after treatment, the animals were sacrificed. The […] was removed, weighed and homogenized at 0° C. with a Potter Teflon-glass ina buffered solution. TS (Tris 10 mM, 0.25M Saccharose, HCl, pH 7.4) (1 g of tissue per 50 ml of TS). The homogenate was ultracentrifuged at 105,000 g×90 minutes at 0° C. The surnageant samples were incubated at a time at (t) 0° C. with a constant concentration (T) of tritiated product (R) which is 17,21-dimethyl-19-nor-Δ^4,9 -pregnadiene-3,20-dione in the presence of increasing concentrations from 0 to 2500×10^-9 M or cold R or cold progestenone or cold test compound. The concentration of bound tritiated R was measured for each incubate by absorption technique on dextran carbon.
The relative affinity of the bond (ARL) was calculated in the same for the receptors. One traced the following 2 curves: the percentage of bond tritiated hormone B/T as a logarithmic function of the concentration of the cold reference hormone and B/T as a logarithmic function of the concentration of the cold test compound. Using the equation [formula] B/T max.=% of bound tritiated hormone for one incubation of tritiated hormone at concentration (T)
B/T min.=% of bound tritiated hormone for one incubation of tritiated hormone at a concentration T in the presence of a great excess of cold hormone (2500×10^-9 M).
The intersections of I50 lines and the curves permit an evaluation of the hormone concentration of the cold reference (CH) and the cold test compound (CX) which inhibited by 50% the bounding of tritiated hormone to the receptor. The ARL of the test compound was determined by the equation. [formula] and the following results were obtained.

CN(C)c1ccc([C@H]2C[C@@]3(C)[C@@H](CC[C@@]3(O)c3ccc(N(C)C)cc3)[C@@H]3CCC4=CC(=O)CCC4=C32)cc1 [Example 2, 11β,17α-bis-(4-dimethylamino-phenyl)-Δ^4,9-estradiene-17β-ol-3-one]
relative affinity of the bond (ARL), Progestogen, 2H: 32 | relative affinity of the bond (ARL), Progestogen, 24H: 183

COc1ccc([C@]2(O)CC[C@H]3[C@@H]4CCC5=CC(=O)CCC5=C4[C@@H](c4ccc(N(C)C)cc4)C[C@@]32C)cc1 [Example 4, 11β-(4-dimethylamino-phenyl)-17α-(4-methoxy-phenyl)-Δ^4,9-estradiene-17β-ol-3-one]
relative affinity of the bond (ARL), Progestogen, 2H: 51 | relative affinity of the bond (ARL), Progestogen, 24H: 264
